# Measured values reported in patent publication US5260280A (priority 1989, dated 1993).
# Values joined by “and” are separate entries in the source; they are usually repeats but may differ in a detail not shown here. Identical values can stand only once. Like-named read-outs stand apart in the source and are kept apart here.
# What was measured:
# [1] = biological target: cholera toxin CT (Vibrio cholerae, UniProt P01556); type: cell-based
# [2] = biological target: enterotoxin CFA/I(LT-1) (Escherichia coli, UniProt D0Z6T1); type: cell-based, E. coli
# [3] = biological target: enterotoxin CFA/II(LT-II) (Escherichia coli, UniProt P0CK94); type: cell-based, E. coli
# [4] = biological target: cholera toxin B-subunits (Vibrio cholerae, UniProt P01556); type: binding
# [5] = test system: cholera toxin; type: in vivo, Vibrio cholerae; details: Balb/c mice, CT 0.25 mg oral on day 8
# [6] = test system: enterotoxin LT-I; parameters: species or system E. coli; details: in vivo, po
# [7] = test system: enterotoxin LT-II; parameters: species or system E. coli; details: in vivo, po
# [8] = test system: CHO-Kl cells; type: cell-based, Chinese hamster
# cholera toxin CT, sequence (P01556 whole entry, looked up): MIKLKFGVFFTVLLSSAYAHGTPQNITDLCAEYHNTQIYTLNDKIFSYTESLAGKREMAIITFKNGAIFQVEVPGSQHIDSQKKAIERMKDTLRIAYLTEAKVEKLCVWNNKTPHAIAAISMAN
# enterotoxin CFA/I(LT-1), sequence (D0Z6T1 whole entry, looked up): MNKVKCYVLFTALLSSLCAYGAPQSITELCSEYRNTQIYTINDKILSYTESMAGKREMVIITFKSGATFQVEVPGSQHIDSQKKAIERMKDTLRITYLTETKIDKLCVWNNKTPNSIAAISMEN
# enterotoxin CFA/II(LT-II), sequence (P0CK94 whole entry, looked up): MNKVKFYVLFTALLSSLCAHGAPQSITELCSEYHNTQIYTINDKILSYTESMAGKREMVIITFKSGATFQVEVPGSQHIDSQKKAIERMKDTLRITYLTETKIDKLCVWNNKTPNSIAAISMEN
substance,measurement,setting,value
sialyllactose [SL],neutralization of the toxicity of CT against CHO-Kl cells (morphological alteration),"[1]; samples 1 or 5 micrograms/chamber, CT 10 micrograms/ml",neutralized the toxicity
same,neutralization of the toxicity of LT-I against CHO-Kl cells (morphological alteration),"[2]; samples 1 or 5 micrograms/chamber, LT-I culture supernatant",neutralized the toxicity
same,neutralization of the toxicity of LT-II against CHO-Kl cells (morphological alteration),"[3]; samples 1 or 5 micrograms/chamber, LT-II culture supernatant",neutralized the toxicity
same,interference with the binding of the cholera toxin B-subunits to GM1,"[4]; GM1-adsorbed plate, peroxidase-labeled CT-B, absorbance at 405 nm",interfered with the binding
same,Rate of diarrhea,[5]; oral 0.2 mg/day for 7 days,20%
same,Rate of diarrhea,[5]; oral 0.5 mg/day for 7 days,20%
same,Rate of diarrhea,[5]; oral 1.0 mg/day for 7 days,0%
same,Rate of diarrhea,[6],40% and 20%
ganglioside GD3,Rate of diarrhea,[7],40% and 20%
cholera toxin [CT],CHO-Kl cells morphologically altered,[8],at least 70%
kappa-casein glycomacropeptides [GMP],neutralization of the toxicity of CT against CHO-Kl cells (morphological alteration),[1],neutralized the toxicity
same,neutralization of the toxicity of LT-I against CHO-Kl cells (morphological alteration),[2],neutralized the toxicity
same,neutralization of the toxicity of LT-II against CHO-Kl cells (morphological alteration),[3],neutralized the toxicity
same,interference with the binding of the cholera toxin B-subunits to GM1,[4],interfered with the binding
kappa-casein,neutralization of the toxicity of CT against CHO-Kl cells (morphological alteration),[1],neutralized the toxicity
same,neutralization of the toxicity of LT-I against CHO-Kl cells (morphological alteration),[2],neutralized the toxicity
same,neutralization of the toxicity of LT-II against CHO-Kl cells (morphological alteration),[3],neutralized the toxicity
same,interference with the binding of the cholera toxin B-subunits to GM1,[4],interfered with the binding
